One data set relates to ASBT. The following applies: read-out: IC50 against ASBT; cited from earlier work.
The target of a further data set is T1, Human ASBT (Homo sapiens, UniProt Q12908).
T1 construct: expressed in transfected cells; host or cells: HEK293T
T1 sequence (Q12908 1-348): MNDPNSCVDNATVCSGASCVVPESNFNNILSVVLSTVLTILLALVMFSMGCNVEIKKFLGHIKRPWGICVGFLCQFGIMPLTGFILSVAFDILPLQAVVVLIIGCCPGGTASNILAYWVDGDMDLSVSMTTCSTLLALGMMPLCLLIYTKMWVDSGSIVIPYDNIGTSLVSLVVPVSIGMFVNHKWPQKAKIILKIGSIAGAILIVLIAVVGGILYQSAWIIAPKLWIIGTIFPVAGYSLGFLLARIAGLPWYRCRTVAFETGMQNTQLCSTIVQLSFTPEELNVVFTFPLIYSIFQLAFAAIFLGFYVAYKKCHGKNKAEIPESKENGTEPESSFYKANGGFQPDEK
Kind of data set: ASBT inhibition assay: [3H]-taurocholic acid uptake in HEK293T cells transiently transfected with human ASBT. Format: cell-based. The following applies: for inhibition at 10 µM: HEK-293T; for IC50: inhibitor concentration that gives 50% taurocholate uptake compared to no inhibitor control. On the procedure: In vitro inhibitory activity of all target compounds against ASBT was evaluated using a radioisotope-based assay. All the newly synthesized derivatives were initially tested at 10 μM concentration (Table 1).
HEK293T was obtained from the American Type Culture Collection (Manassas, VA, USA), and grown in MEM supplemented with 100 U/mL penicillin and […] streptomycin and 10% heat-inactivated fetal bovine serum. Human ASBT expression construct was prepared as previously described. HEK293T cells were seeded in 12 well plates and transiently transfected with 0.5 μg/well pcDNA3.1/ASBT or negative control plasmid pcDNA3.1 using lipofactamine 2000 (Invitrogen, Carlsbad, CA, USA) according to the manufacturer’s instructions. Twenty-four hours after transfection, HEK293T cells were assayed for taurocholic acid uptake as previously described with minor modifications. […] To terminate the transport process, the plates were chilled on ice and the cells were immediately washed with ice-cold buffer three times. Cells were lysed with 0.3 mL lysis buffer (0.5% triton x-100) and shaken vigorously for 20 min. The radioactivity of the cell lysate was counted using a MicroBeta^2 Liquid Scintillation and Luminescence Counter (PerkinElmer Life Sciences). Protein concentration of the lysate was used to normalize uptake activity.
The inhibition rate was calculated using the following formula: Inhibition Rate (%) = [(1 − (A − C)/(B − C)] × 100
A, [^3H] uptake value of test compound in [^3H]-TCA buffer added to pcDNA3.1/ASBT transfected cells; B, [^3H] uptake value of DMSO (without inhibitor) in [^3H]-TCA buffer added to pcDNA3.1/ASBT transfected cells; C, [^3H] uptake value of Blank sample (DMSO) in [^3H]-TCA buffer added to empty vector (pcDNA3.1) transfected cells.

Broadly, the IC50 is the concentration needed to halve the response being measured. Turning to `O=C(Nc1ccc(Cl)c(Cl)c1)c1ccccc1NS(=O)(=O)c1cccc([N+](=O)[O-])c1` [Compound 5a1, N-(3,4-Dichlorophenyl)-2-(3-nitrophenylsulfonamido)benzamide], the IC50 in the data set with ASBT was 4000 nM.

As a reminder, the inhibition is the change of the read-out against control, counted positive when it falls. Low values mean a weak effect, high ones a strong effect. Broadly, the melting point is the temperature of the solid-liquid transition. Compound `COc1cccc(S(=O)(=O)Nc2ccccc2C(=O)Nc2ccc(F)c(Cl)c2)c1` [Compound 5f2, N-(3-Chloro-4-fluorophenyl)-2-(3-methoxyphenylsulfonamido)benzamide] yielded a melting point of 181.9 to 183.2 °C. At Human ASBT, this compound yielded an inhibition at 10 µM of 59.5 ± 3.6%.

`COc1cccc(S(=O)(=O)Nc2ccccc2C(=O)Nc2ccc(C)c(C(F)(F)F)c2)c1` [Compound 5f3, 2-(3-Methoxyphenylsulfonamido)-N-(4-methyl-3-(trifluoromethyl)phenyl)benzamide] yielded a melting point of 165.7 to 166.6 °C. Further, at Human ASBT, at 10 µM the inhibition was 43 ± 3.2%.

In turn, `COc1cccc(S(=O)(=O)Nc2ccccc2C(=O)Nc2cccc(OC(F)(F)F)c2)c1` [Compound 5f4, 2-(3-Methoxyphenylsulfonamido)-N-(3-(trifluoromethoxy)phenyl)benzamide] registered a melting point of 149.3 to 150.8 °C. Besides, at Human ASBT, the inhibition at 10 µM amounted to 25.8 ± 2.1%.

`COc1cccc(S(=O)(=O)Nc2ccccc2C(=O)Nc2ccc(Cl)c(Cl)c2)c1` [Compound 5f5, N-(3,4-Dichlorophenyl)-2-(3-methoxyphenylsulfonamido)benzamide] returned a melting point of 160.3 to 161.4 °C. For the same compound, the inhibition at 10 µM against Human ASBT amounted to 20.1 ± 1.9%.

In turn, `O=C(Nc1ccc(Cl)cc1Cl)c1ccccc1NS(=O)(=O)c1cccc(OC(F)(F)F)c1` [Compound 5g1, N-(2,4-Dichlorophenyl)-2-(3-(trifluoromethoxy)phenylsulfonamido)benzamide] displayed a melting point of 151.6 to 152.8 °C. At Human ASBT, this compound yielded an inhibition at 10 µM of 89.3 ± 3.3% and an IC50 of 910 ± 180 nM.

In turn, `O=C(Nc1ccc(F)c(Cl)c1)c1ccccc1NS(=O)(=O)c1cccc(OC(F)(F)F)c1` [Compound 5g2, N-(3-Chloro-4-fluorophenyl)-2-(3-(trifluoromethoxy)phenylsulfonamido)benzamide] yielded a melting point of 157.3 to 158.6 °C. For the same compound, on Human ASBT, testing at 10 µM gave an inhibition of 98.6 ± 2.6% and the IC50 came out at 110 ± 50 nM.

Compound `Cc1ccc(NC(=O)c2ccccc2NS(=O)(=O)c2cccc(OC(F)(F)F)c2)cc1C(F)(F)F` [Compound 5g3, N-(4-Methyl-3-(trifluoromethyl)phenyl)-2-(3-(trifluoromethoxy)phenylsulfonamido)benzamide] registered a melting point of 179.4 to 180.5 °C. On Human ASBT, this compound displayed an inhibition at 10 µM of 91.8 ± 3.5% and an IC50 of 830 ± 110 nM.

Compound `O=C(Nc1cccc(OC(F)(F)F)c1)c1ccccc1NS(=O)(=O)c1cccc(OC(F)(F)F)c1` [Compound 5g4, N-(3-(Trifluoromethoxy)phenyl)-2-(3-(trifluoromethoxy)phenylsulfonamido)benzamide] displayed a melting point of 169.1 to 170.4 °C. At Human ASBT, this compound registered an inhibition at 10 µM of 88.1 ± 2.7% and an IC50 of 1030 ± 160 nM.

These data come from paper PMC6269792, “Arylsulfonylamino-Benzanilides as Inhibitors of the Apical Sodium-Dependent Bile Salt Transporter (SLC10A2)” (Molecules, 2013).
